In the NIST ThermoML archive (doi:10.1021/acs.jced.5b00675):
Numbers after ± are expanded uncertainties.

Details: Liquid, Closed cell (Static) method

FCC(F)(F)F [1,1,1,2-tetrafluoroethane]
Details	vapor or sublimation pressure [kPa]
258.2 K	162 ± 5
262.2 K	193 ± 5
272.2 K	286 ± 5
282.6 K	411 ± 5
292.9 K	569 ± 5
302.7 K	763 ± 6
